# Test system: U-2 OS
# Assay: cell painting activity score (Mahalanobis distance from DMSO wells); higher = stronger morphological phenotype
# Settings: 2.5 µM; 24 h
# How it was run: (§1)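 Using 384-well plates holding about 1,500 U-2 OS cells per well, treatment was applied by pin tool for 24 h at 37 °C, generally at six 2-fold concentrations ranging from 20 μM to 625 nM. Staining with MitoTracker, concanavalin A, phalloidin, wheat germ agglutinin, Hoechst and SYTO 14 preceded Opera Phenix imaging and CellProfiler feature extraction against DMSO cells on the same plate. Activity score and cell count are both referenced to DMSO wells, the former as a Mahalanobis distance. Four replicate plates were averaged for every value.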
row,Structure (SMILES),cell painting activity score
1,O=[N+]([O-])c1c(Cl)cc(Cl)c2nsnc12,14.1
2,O=C(/C(C(N1CC2=CC=CC=C2)=O)=C/C3=C(C)C=C(O)C=C3C)N(CC4=CC=CC=C4)C1=O,5.14
3,Oc1cccc(O)c1O,3.93

# Same assay, conditions: 5 µM; 24 h
row,Structure (SMILES),cell painting activity score
1,O=C(CCCCCCC(=O)Nc1ccccc1)NO,12
2,Cn1c(SC2=CS(=O)(=O)c3ccccc32)nnc1-c1ccc(O)cc1,13.1
3,Cc1onc(C(=O)N2CCN(C(c3ccc(Cl)cc3)c3ccc(Cl)cc3)CC2)c1[N+](=O)[O-],9.26
4,Cc1cc(NC(=O)c2cccc(NC(=O)/C=C/CN(C)C)c2)ccc1Nc1nccc(-c2cccnc2)n1,10.8
5,c1ccc(-c2noc(NC3CCCC3)n2)cc1,3.02
6,O=[N+]([O-])c1c(Cl)cc(Cl)c2nsnc12,17.8
7,O=C(/C(C(N1CC2=CC=CC=C2)=O)=C/C3=C(C)C=C(O)C=C3C)N(CC4=CC=CC=C4)C1=O,4.49
8,Oc1cccc(O)c1O,3.87

# Same assay, conditions: 10 µM; 24 h
row,Structure (SMILES),cell painting activity score
1,O=C(CCCCCCC(=O)Nc1ccccc1)NO,17.1
2,Cn1c(SC2=CS(=O)(=O)c3ccccc32)nnc1-c1ccc(O)cc1,16.2
3,Cc1onc(C(=O)N2CCN(C(c3ccc(Cl)cc3)c3ccc(Cl)cc3)CC2)c1[N+](=O)[O-],11.2
4,Cc1cc(NC(=O)c2cccc(NC(=O)/C=C/CN(C)C)c2)ccc1Nc1nccc(-c2cccnc2)n1,11.1
5,c1ccc(-c2noc(NC3CCCC3)n2)cc1,2.62
6,O=[N+]([O-])c1c(Cl)cc(Cl)c2nsnc12,25.1
7,O=C(/C(C(N1CC2=CC=CC=C2)=O)=C/C3=C(C)C=C(O)C=C3C)N(CC4=CC=CC=C4)C1=O,9.6
8,Oc1cccc(O)c1O,5.49

# Same assay, conditions: 20 µM; 24 h
row,Structure (SMILES),cell painting activity score
1,O=C(CCCCCCC(=O)Nc1ccccc1)NO,14.8
2,Cn1c(SC2=CS(=O)(=O)c3ccccc32)nnc1-c1ccc(O)cc1,13.2
3,Cc1onc(C(=O)N2CCN(C(c3ccc(Cl)cc3)c3ccc(Cl)cc3)CC2)c1[N+](=O)[O-],11.3
4,Cc1cc(NC(=O)c2cccc(NC(=O)/C=C/CN(C)C)c2)ccc1Nc1nccc(-c2cccnc2)n1,13
5,c1ccc(-c2noc(NC3CCCC3)n2)cc1,3.1
6,O=[N+]([O-])c1c(Cl)cc(Cl)c2nsnc12,24.4
7,O=C(/C(C(N1CC2=CC=CC=C2)=O)=C/C3=C(C)C=C(O)C=C3C)N(CC4=CC=CC=C4)C1=O,10.8
8,Oc1cccc(O)c1O,5.54

# Same assay, conditions: 40 µM; 24 h
row,Structure (SMILES),cell painting activity score
1,O=C(/C(C(N1CC2=CC=CC=C2)=O)=C/C3=C(C)C=C(O)C=C3C)N(CC4=CC=CC=C4)C1=O,8.64

# Same assay, conditions: 80 µM; 24 h
row,Structure (SMILES),cell painting activity score
1,O=C(/C(C(N1CC2=CC=CC=C2)=O)=C/C3=C(C)C=C(O)C=C3C)N(CC4=CC=CC=C4)C1=O,16.5

# Test system: U-2 OS
# Assay: relative cell count vs DMSO (cell painting) (fraction of DMSO control); higher = more cells remaining (less cytotoxic)
# Settings: 0.625 µM; 24 h
# How it was run: as §1
row,Structure (SMILES),relative cell count
1,O=C(CCCCCCC(=O)Nc1ccccc1)NO,1.01
2,Cn1c(SC2=CS(=O)(=O)c3ccccc32)nnc1-c1ccc(O)cc1,0.933
3,Cc1onc(C(=O)N2CCN(C(c3ccc(Cl)cc3)c3ccc(Cl)cc3)CC2)c1[N+](=O)[O-],0.903
4,Cc1cc(NC(=O)c2cccc(NC(=O)/C=C/CN(C)C)c2)ccc1Nc1nccc(-c2cccnc2)n1,0.888
5,c1ccc(-c2noc(NC3CCCC3)n2)cc1,1.03
6,O=[N+]([O-])c1c(Cl)cc(Cl)c2nsnc12,0.967
7,O=C(/C(C(N1CC2=CC=CC=C2)=O)=C/C3=C(C)C=C(O)C=C3C)N(CC4=CC=CC=C4)C1=O,0.901
8,Oc1cccc(O)c1O,0.96

# Same assay, conditions: 1.25 µM; 24 h
row,Structure (SMILES),relative cell count
1,O=C(CCCCCCC(=O)Nc1ccccc1)NO,0.936
2,Cn1c(SC2=CS(=O)(=O)c3ccccc32)nnc1-c1ccc(O)cc1,0.993
3,Cc1onc(C(=O)N2CCN(C(c3ccc(Cl)cc3)c3ccc(Cl)cc3)CC2)c1[N+](=O)[O-],0.945
4,Cc1cc(NC(=O)c2cccc(NC(=O)/C=C/CN(C)C)c2)ccc1Nc1nccc(-c2cccnc2)n1,0.863
5,c1ccc(-c2noc(NC3CCCC3)n2)cc1,1.02
6,O=[N+]([O-])c1c(Cl)cc(Cl)c2nsnc12,0.626
7,O=C(/C(C(N1CC2=CC=CC=C2)=O)=C/C3=C(C)C=C(O)C=C3C)N(CC4=CC=CC=C4)C1=O,0.839
8,Oc1cccc(O)c1O,0.998

# Same assay, conditions: 2.5 µM; 24 h
row,Structure (SMILES),relative cell count
1,O=C(CCCCCCC(=O)Nc1ccccc1)NO,0.838
2,Cn1c(SC2=CS(=O)(=O)c3ccccc32)nnc1-c1ccc(O)cc1,0.903
3,Cc1onc(C(=O)N2CCN(C(c3ccc(Cl)cc3)c3ccc(Cl)cc3)CC2)c1[N+](=O)[O-],0.883
4,Cc1cc(NC(=O)c2cccc(NC(=O)/C=C/CN(C)C)c2)ccc1Nc1nccc(-c2cccnc2)n1,0.841
5,c1ccc(-c2noc(NC3CCCC3)n2)cc1,1.06
6,O=[N+]([O-])c1c(Cl)cc(Cl)c2nsnc12,0.447
7,O=C(/C(C(N1CC2=CC=CC=C2)=O)=C/C3=C(C)C=C(O)C=C3C)N(CC4=CC=CC=C4)C1=O,0.861
